Source: patent publication US20110166191A1, “3-(2-amino-ethyl)-5-(3-cyclohexyl-propylidene)-thiazolidine-2,4-dione and its derivatives as multiple signaling pathway inhibitors and for the treatment of cancer” (priority 2010, published 2011)
pIC50: −log10 of the molar value.

How the values were obtained:
DU145 = assay: Cell viability assay; format: cell-based; settings: Homo sapiens, DU-145, DU145 cells, 24 hrs, read-out: Inhibition of cancer cell proliferation IC50
Procedure: (§1) Cells were cultured at a density of 5×10^4 (U937) or 1×10^4 (PC-3, DU145, M12, HT29) cells per well in flat bottomed 96-well plates and treated with various concentrations of test compound at 37° C. (5% CO2). After 24 h, 20 μL of CellTiter 96® Aqueous One Solution Reagent (Promega, Madison, Wis.) was added to each well according to the manufacturer's instructions. After 1 hour, the cell viability was determined by measuring the absorbance at 490 nm using a micro-plate reader.

HT29 = assay: Cell viability assay; format: cell-based; settings: Homo sapiens, HT-29, HT29 cells, 24 hrs, read-out: Inhibition of cancer cell proliferation IC50
Procedure: as §1

M12 = assay: Cell viability assay; format: cell-based; settings: M12 cells, 24 hrs, read-out: Inhibition of cancer cell proliferation IC50
Procedure: as §1

PC-3 = assay: Cell viability assay; format: cell-based; settings: Homo sapiens, PC-3 cells, 24 hrs, read-out: Inhibition of cancer cell proliferation IC50
Procedure: as §1

U937 = assay: Cell viability assay; format: cell-based; settings: Homo sapiens, U-937, U937 cells, 24 hrs, read-out: Inhibition of cancer cell proliferation IC50
Procedure: as §1

phosphorylation of ERK = assay: Western blot analysis of p-ERK in U937 cells; format: cell-based; settings: 3 μM, PMA/TPA 200 nM stimulation
Procedure: (§2) FIG. 1. U937 cells were treated with Formula II prepared as described in Example 4 [i.e. 3-(2-aminoethyl)-5-(3-cyclohexylpropylidene)thiazolidine-2,4-dione] for 1 h, then stimulated with PMA (200 nM) for 30 min. Lysates were analyzed for p-Akt, p-MEK, p-ERK and α-tubulin by western blot analysis.
(§3) Cells (5×10^5 per ml) were treated with various concentrations of test compound at 37° C. (5% CO2) for 3 hrs, then stimulated with TPA at a final concentration of 200 nM for 20 min. Samples from whole-cell pellets were prepared and 30 μg protein for each condition was subjected to SDS-PAGE, transferred onto a PVDF membrane, and blocked with 5% fat-free milk for 30 min. The membrane is probed with primary antibodies overnight at 4° C. followed by incubation with horseradish peroxidase-labeled anti-mouse IgG (1:5000, BD Biosciecne). The immunoreactive bands are detected by chemiluminescence methods (Pierce) and visualized on Kodak Omat film. The following primary antibodies were used: phospho-p44/42 MAPK (ERK1/2, Thr202/Tyr204), p44/42 MAPK, phospho-p90RSK (Thr359/Ser363), RSK1/RSK2/RSK3 (Cell Signaling). Blots were reprobed with antibodies against α-tubulin to ensure equal loading and transfer of proteins.

phosphorylation of Akt = assay: Western blot analysis of p-Akt in U937 cells; format: cell-based; settings: PMA/TPA 200 nM stimulation
Procedure: as §2, §3

DU145 cells = assay: Cell apoptosis assay (annexin V/PI flow cytometry); format: cell-based; settings: 24 hrs
Procedure: (§4) FIG. 2. Indicated cancer cells were treated with Formula II synthesized as described in Example 4, 3-(2-aminoethyl)-5-(3-cyclohexylpropylidene)thiazolidine-2,4-dione, at indicated concentrations for 24 hrs, then stained with Annexin-V/PI and analyzed by flow cytometry.
(§5) Apoptosis was measured by flow cytometry using annexin V/propidium iodide (PI) as staining reagent. Briefly, after treatment with test compound of varying concentrations for varying intervals (4, 8, 18, 36 hrs), cells were washed twice with cold PBS and then resuspended in 1× binding buffer (10 mM HEPES [N-2-hydroxyethylpiperazine-N′-2-ethanesulfonic acid]/NaOH, pH 7.4, 140 mM […], 2.5 mM CaCl2). The cells were then incubated with annexin V-fluorescein isothiocyanate (FITC) (BD PharMingen, San Diego, Calif.) and 5 μg/mL propidium iodide (PI), and incubated for 15 minutes at room temperature in the dark per the manufacturer's instructions. The samples were analyzed by flow cytometry using a Becton Dickinson FACScan (Becton Dickinson, San Jose, Calif.) within 1 hr to determine the percentage of cells displaying annexin V staining (early apoptosis) or both annexin V and PI staining (late apoptosis).

M12 cells = assay: Cell apoptosis assay (annexin V/PI flow cytometry); format: cell-based; settings: 24 hrs
Procedure: as §4, §5

U937 cells [1] = assay: Cell apoptosis assay (annexin V/PI flow cytometry); format: cell-based; settings: 24 hrs
Procedure: as §4, §5

U937 cells [2] = assay: Cell cycle analysis (PI flow cytometry); format: cell-based; settings: 24 h
Procedure: FIG. 3. Effects of Formula II and Formula III on U937 cell cycle. Cells were treated with compounds prepared as described in Examples 4 and 8 [i.e. 3-(2-aminoethyl)-5-(3-cyclohexylpropylidene)thiazolidine-2,4-dione and 3-(2-aminoethyl)-5-(3-phenyl-propylidene)-thiazolidine-2,4-dione, respectfully] for 24 hrs, then cells were stained with PI and analyzed by flow cytometry.
After treatment of cells with test compound of varying concentrations for 24 hrs, cells were pelleted at 4° C., resuspended, fixed at 4° C. with 67% ethanol overnight, and treated on ice with a PI solution containing 3.8 mM Na citrate, 0.5 mg/mL RNase A (Sigma Chemical Co.), and 0.01 mg/mL PI (Sigma) for 3 hrs. Cell cycle analysis was performed by flow cytometry using Verity Winlist software (Topsham, Me.).

B16F10 melanoma cells = assay: Reduction of murine B16F10 melanoma lung nodules in mice; format: in vivo, B6C3F1 mice; settings: 20 mg/kg daily gavage
Procedure: FIG. 5. […] Female B6C3F1 mice (10-11/group) were injected with 2×10^5 B16F10 melanoma cells (i.v.), and treatment with 20 mg/kg dose daily (gavage) was started one day before the tumor cell injection and stopped at day 15 after tumor injection. Mice were sacrificed at day 18 and lungs were removed for counting and observation.
Female B6C3F1 mice (10-11/group) were injected with 2×10^5 B16F10 melanoma cells (i.v.), and treatment with the compound produced as described in Example 4i.e. 3-(2-aminoethyl)-5-(3-cyclohexylpropylidene)thiazolidine-2,4-dione, 20 mg/kg dosage daily (gavage) was started one day before the tumor cell injection and stopped at day 15 after tumor injection. Mice were sacrificed at day 18 and lungs were removed for counting and observation.

Toxicity studies in mice = format: in vivo; settings: B6C3F1 mice, orally 30 mg/kg, 50 mg/kg and 80 mg/kg, 21 days
Procedure: Female B6C3F1 mice (12/group) were given example 4 orally at 30 mg/kg, 50 mg/kg and 80 mg/kg dosage or example 820 mg/kg orally for 21 days.

Work on `NCCN1C(=O)S/C(=C\CCC2CCCCC2)C1=O` [Example 4, 3-(2-aminoethyl)-5-(3-cyclohexylpropylidene)thiazolidine-2,4-dione] yielded a pIC50 (DU145) of 5.32, a pIC50 (HT29) of 4.75 and a pIC50 (M12) of 5.35. For the same compound, the pIC50 (PC-3) was 5.35, the pIC50 (U937) was 5.66 and the “phosphorylation of ERK (p-ERK, western blot)” value (phosphorylation of ERK) was “significantly inhibited the phosphorylation of ERK”. For the same compound, the “phosphorylation of Akt (p-Akt, western blot)” value (phosphorylation of Akt) was “dose dependently inhibited the phosphorylation of Akt”, the “apoptosis (Annexin-V/PI)” value (DU145 cells) was “minimal apoptotic effects” and the “apoptosis (Annexin-V/PI)” value (M12 cells) was “significantly and dose-dependently induced apoptosis”. For the same compound, the “apoptosis (Annexin-V/PI)” value (U937 cells [1]) was “significantly and dose-dependently induced apoptosis”, the “effect on cell cycle” value (U937 cells [2]) was “arrested U937 cells at G2/M phase” and the lung tumor nodules (B16F10 melanoma cells; B6C3F1 mice, B16F10 melanoma cells i.v., lungs at day 18) was “decreased the lung tumor nodules”. The “oral bioavailability (in words)” value (B16F10 melanoma cells; mice) was “orally bioavailable” and the “effects on general health and body weight” value (Toxicity studies in mice) was “no effects on general health and body weight were observed”.
